# Data as given in patent publication US20210330611A1, “THERAPY FOR NEUROLOGICAL DISEASES/DISORDERS” (priority 2020, published 2021).
# Where “and” joins values, the source holds several entries; their conditions need not be identical. Equal values may be shown once. Where a name gives a salt, the structure may show the parent alone. Read-outs that look alike come from different tables or passages of the source.
# Legend:
# [1] = in vitro; details: rat, Cell Toxicity IC50 (uM) [cFib assay]
# [2] = test system: primary rat microglia; experiment: Cell toxicity (dead cells, size <150 μm2) in coated fibrin (cFib) assay; details: primary microglia HTS, fibrin stimulation; decreased size (<150 μm^2) as marker of toxicity;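 on Fibrin % cell toxicity: share of dead cells sized under 150 µm2 at 10 µM in fibrin-stimulated microglia HTS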
# [3] = test system: primary rat microglia; experiment: Cell toxicity (dead cells, size <150 μm2) in LPS assay; details: for LPS % cell toxicity: primary microglia HTS, LPS stimulation, decreased size (<150 μm^2) as marker of toxicity; for IC50: read-out: Cell Toxicity IC50 (uM) [LPS assay], LPS assay
# [4] = in vitro; details: rat
# [5] = test system: fibrin-induced microglia activation; experiment: Image-based assay of fibrin-induced microglia activation (HTS and dose response); type: cell-based, rat; details: for IC50 / inhibition at 10 µM: Rattus norvegicus, Microglia; for inhibition at 10 µM: primary microglia HTS, fibrin stimulation, increased cell size (>800 μm^2) as marker of activation, read-out: Fibrin % inhibition
# [6] = test system: fibrin- and LPS-induced microglia activation; experiment: cells; type: cell-based, rat; details: for inhibition at 10 µM: Rattus norvegicus
# [7] = test system: LPS-induced microglia activation; experiment: Image-based assay of LPS-induced microglia activation (HTS and dose response); type: cell-based, rat; details: Rattus norvegicus, Microglia; for inhibition at 10 µM: primary microglia HTS, LPS stimulation, increased cell size (>800 μm^2) as marker of activation, read-out: LPS % inhibition
# [8] = 48 h, Table 1, dose response 0.001-20 μM, triplicates, primary rat microglia, 48 h, read-out: Fibrin IC50
# [9] = dose response, fibrin-induced microglia activation, read-out: Fibrin IC50
# [10] = fibrin-induced microglia activation, dose response, read-out: Fibrin IC50 (uM) (Suppl. Table 7)
# [11] = HTS of 1907 compounds, quadrant by fibrin and LPS inhibition
# [12] = Microglia, HTS hit classification, read-out: Hit
# [13] = hit classification in microglia HTS, read-out: Cherry-picked Hit (Suppl. Table 7)
# [14] = quadrant by fibrin and LPS inhibition in HTS of 1907 compounds
# [15] = 48 h, Table 1, dose response 0.001-20 μM, triplicates, primary rat microglia, 48 h, read-out: LPS IC50
# [16] = LPS-induced microglia activation, dose response, read-out: LPS IC50 (uM) (Suppl. Table 7)
# [17] = dose response, LPS-induced microglia activation, read-out: LPS IC50
# [18] = Table 3, read-out: Fibrin IC50 (uM) (Suppl. Table 7)
# [19] = Microglia, Table 3, read-out: Cherry-picked Hit (Suppl. Table 7)
# [20] = Table 3, read-out: LPS IC50 (uM) (Suppl. Table 7)
# [21] = Table 6, read-out: Fibrin IC50 (uM) (Suppl. Table 7)
# [22] = Table 6, read-out: LPS IC50 (uM) (Suppl. Table 7)
Compound,IC50 ([1]; cFib assay),Fibrin % cell toxicity [2],LPS % cell toxicity [3],IC50 [4],"IC50 [5, 8]","IC50 [5, 9]","IC50 [5, 10]",inhibition at 10 µM [5],"Quadrant (FIG. 5b) [6, 11]","inhibition at 10 µM [6, 12]","Quadrant (FIG. 5b) ([6]; Table 1, screen at 10 μM)","Quadrant (FIG. 5b) [6, 14]","IC50 [7, 15]",inhibition at 10 µM ([7]; 48 h),"IC50 [7, 16]","IC50 [7, 17]",IC50 ([1]; Table 3),IC50 [3],Fibrin Selectivity [5],"inhibition at 10 µM [6, 19]",other results
"Cc1cc(-n2c(=O)[nH]c(=O)n(C)c2=O)ccc1Oc1ccc(SC(F)(F)F)cc1 [Toltrazuril, reference compound]",> 20 µM,3%,2%,> 20 µM,> 20 µM,> 20 µM,> 20 µM,104%,Q2,> 50%,Q2,Q2,> 20 µM,90%,> 20 µM,> 20 µM,–,–,–,–,"inhibition at 10 µM [6, 13]: > 50%"
"NS(=O)(=O)c1cc(C2(O)NC(=O)c3ccccc32)ccc1Cl (stereo not shown) [Chlorthalidone, reference compound]",> 20 µM,2%,1%,> 20 µM,> 20 µM,> 20 µM,> 20 µM,77%,Q3,> 50%,Q3,Q3,> 20 µM,35%,> 20 µM,> 20 µM,–,–,–,–,"inhibition at 10 µM [6, 13]: > 50%"
"CC(=O)OCC(=O)[C@H]1CC[C@H]2[C@@H]3CCC4=CC(=O)CC[C@]4(C)[C@H]3CC[C@]12C [Desoxycorticosterone acetate, reference compound]",> 20 µM,1%,1%,> 20 µM,0.5 µM,0.5 µM,0.5 µM,83%,Q3,> 50%,Q3,Q3,5 µM,47%,5 µM,5 µM,> 20 µM,> 20 µM,10,> 50%,"Fibrin Selectivity (LOG10) [5]: 0.98; IC50 [5, 18]: 0.5 µM; Quadrant (FIG. 5b) ([6]; Table 3, screen at 10 μM): Q3; IC50 [7, 20]: 5 µM"
"Clc1ccc(C(OCCN2CCCCC2)c2ccccc2)cc1 (stereo not shown) [Cloperastine hydrochloride, reference compound]",> 20 µM,2%,0%,> 20 µM,7 µM,7 µM,7 µM,64%,Q3,> 50%,Q3,Q3,9 µM,44%,9 µM,9 µM,–,–,–,–,"inhibition at 10 µM [6, 13]: > 50%"
"S=C=NCc1ccccc1 [Benzyl isothiocyanate, reference compound]",> 20 µM,2%,2%,> 20 µM,10 µM,10 µM,10 µM,77%,Q2,> 50%,Q2,Q2,> 20 µM,68%,> 20 µM,> 20 µM,> 20 µM,> 20 µM,2,> 50%,"Fibrin Selectivity (LOG10) [5]: 0.29; IC50 [5, 18]: 10 µM; Quadrant (FIG. 5b) ([6]; Table 3, screen at 10 μM): Q2; IC50 [7, 20]: > 20 µM"
"COc1ccc(-n2nc(CCC(=O)N(C)O)cc2-c2ccc(Cl)cc2)cc1 [Tepoxalin, reference compound]",> 20 µM,1%,2%,> 20 µM,3 µM,3 µM,3 µM,76%,Q2,> 50%,Q2,Q2,18 µM,66%,18 µM,18 µM,> 20 µM,> 20 µM,6,> 50%,"Fibrin Selectivity (LOG10) [5]: 0.75; IC50 [5, 18]: 3 µM; Quadrant (FIG. 5b) ([6]; Table 3, screen at 10 μM): Q2; IC50 [7, 20]: 18 µM"
"c1ccc2[nH]c(-c3cscn3)nc2c1 [Thiabendazole, reference compound]",> 20 µM,1%,1%,> 20 µM,> 20 µM,> 20 µM,> 20 µM,58%,Q2,> 50%,Q2,Q2,> 20 µM,62%,> 20 µM,> 20 µM,–,–,–,–,"inhibition at 10 µM [6, 13]: > 50%"
"C[C@]12C=CC(=O)C=C1CC[C@@H]1[C@@H]2C(=O)C[C@@]2(C)[C@H]1CC[C@]2(O)C(=O)CO [Prednisone, reference compound]",> 20 µM,1% and 2%,1% and 0%,> 20 µM,–,–,–,66%,Q3,> 50%,Q3,Q3,> 20 µM,45%,> 20 µM,> 20 µM,> 20 µM,> 20 µM,6,> 50%,"Quadrant (FIG. 5b) ([6]; Table 3, screen at 10 μM): Q3; IC50 [7, 20]: > 20 µM"
"CC(NCCc1ccc(O)cc1)C(O)c1ccc(O)cc1 (stereo not shown) [Ritodrine hydrochloride, reference compound]",> 20 µM,1%,1%,> 20 µM,0.6 µM,0.6 µM,0.6 µM,51%,Q3,> 50%,Q3,Q3,> 20 µM,36%,> 20 µM,> 20 µM,> 20 µM,> 20 µM,33,> 50%,"IC50 ([1]; cFib assay, Table 6): > 20 µM; IC50 ([3]; Table 6): > 20 µM; Fibrin Selectivity (LOG10) [5]: 1.51; IC50 [5, 18]: 0.6 µM; IC50 [5, 21]: 0.6 µM; Fibrin Selectivity (LOG10) ([5]; fibrin vs LPS, LOG10, Table 6): 1.51; Fibrin Selectivity ([5]; fibrin vs LPS, Table 6): 33; Quadrant (FIG. 5b) ([6]; Table 3, screen at 10 μM): Q3; Quadrant (FIG. 5b) ([6]; microglia HTS, Table 6): Q3; IC50 [7, 20]: > 20 µM; IC50 [7, 22]: > 20 µM"
"CCCC(=O)O[C@]1(C(=O)CO)CC[C@H]2[C@@H]3CCC4=CC(=O)CC[C@]4(C)[C@H]3[C@@H](O)C[C@@]21C [Hydrocortisone butyrate, reference compound]",> 20 µM,2%,2%,> 20 µM,0.02 µM,0.02 µM,0.02 µM,108%,Q2,> 50%,Q2,Q2,2 µM,78%,2 µM,2 µM,> 20 µM,> 20 µM,89,> 50%,"IC50 ([1]; cFib assay, Table 6): > 20 µM; IC50 ([3]; Table 6): > 20 µM; Fibrin Selectivity (LOG10) [5]: 1.95; IC50 [5, 18]: 0.02 µM; IC50 [5, 21]: 0.02 µM; IC50 ([5]; Table 7, read-out: fib_IC50): 0.071 µM; Quadrant (FIG. 5b) ([6]; Table 2, screen at 10 μM): Q2; Quadrant (FIG. 5b) ([6]; Table 3, screen at 10 μM): Q2; Activity ([6]; Table 7, fib = fibrin, LPS, tox = toxicity): fib/LPS; Quadrant (FIG. 5b) ([6]; microglia HTS, Table 6): Q2; IC50 [7, 20]: 2 µM; IC50 [7, 22]: 2 µM; IC50 ([7]; Table 7, read-out: LPS_IC50): 0.005 µM"
